Data reported in ChEMBL document CHEMBL1131792, “Structure-based design of a non-peptidic antagonist of the SH2 domain of GRB2” (Bioorg Med Chem Lett, 1999).

What was measured:
[1] = target: T1, Growth factor receptor-bound protein 2 (Homo sapiens, UniProt P62993); test: Inhibition of Grb2 SH2 domain binding to phospho-EGF receptor intracellular C-terminal domain
[2] = target: T1, Growth factor receptor-bound protein 2; test: Inhibition of Grb2 SH2 domain binding to phospho-EGF receptor intracellular C-terminal domain at 5 mM

IC50 [1]	SMILES	inhibition [2]
25.9 µM	Cc1sc(-c2nccc(N)n2)nc1-c1ccc(OP(=O)(O)O)cc1	
> 200 µM	Nc1ccnc(NCCc2ccc(OP(=O)(O)O)cc2)n1	
	O=P(O)(O)Oc1ccccc1	55%
